Data as given in patent US20260176289A1, “SMALL MOLECULE INHIBITORS OF KRAS PROTEINS” (Merck Sharp & Dohme LLC, priority 2022, published 2026).
Where two headings read alike, the source gives them in different places.

Assays:
[1] = system: MKN-1 cells; test: Cellular phospho-ERK assay, MKN-1 cells (amplified wild-type KRAS); type: cell-based; settings: read-out: MKN1 pERK IC50
Method in brief: (§1)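 Cells seeded at 10,000-15,000 per well were incubated overnight, then exposed to compound for 2 hours at 37 °C in a 10-point, 1:3 series topping at 30 μM final. Lysates were assayed by Alpha SureFire Ultra multiplex for p-ERK and total ERK; IC50 came from a 4-parameter logistic fit of their ratio.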

[2] = molecular target: KRAS-G12V (Homo sapiens, UniProt P01116, G12V); test: SOS-catalyzed nucleotide exchange assay (Procedure A, TR-FRET), KRAS-G12V; type: biochemical; settings: nucleotide exchange, read-out: KRAS G12V GNE IC50
Method in brief: (§2)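 Inhibitors stabilizing the Bodipy-GDP state are detected as retained TR-FRET from a preformed biotinylated RAS/Tb-streptavidin complex. They are preincubated 60 min at room temperature, then human SOS and 3 mM GTP are added. G12V runs 90 min at 1.25 nM RAS/160 nM SOS. G12C (3 nM), WT (1 nM) and NRAS (1.25 nM) run 60 min with 40 nM SOS.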

[3] = molecular target: KRAS-G13D (Homo sapiens, UniProt P01116, G13D); test: SOS-catalyzed nucleotide exchange assay (Procedure A, TR-FRET), KRAS-G13D; type: biochemical; settings: nucleotide exchange, Procedure A; read-out: KRAS G13D GNE IC50
[4] = molecular target: KRAS-G12C (C51S/C80L/C118S) (Homo sapiens, UniProt P01116, C118S/C51S/C80L/G12C); test: SOS-catalyzed nucleotide exchange assay (Procedure A, TR-FRET), KRAS-G12C; type: biochemical; settings: nucleotide exchange, Procedure A; read-out: KRAS G12C GNE IC50
Method in brief: as §2

[5] = system: SW620 cells; test: Cellular phospho-ERK assay, SW620 cells (homozygous KRAS-G12V); type: cell-based; settings: read-out: SW620 pERK IC50
Method in brief: as §1

[6] = molecular target: KRAS-WT (Homo sapiens, UniProt P01116); test: SOS-catalyzed nucleotide exchange assay (Procedure A, TR-FRET), KRAS-WT; type: biochemical; settings: nucleotide exchange, read-out: KRAS WT GNE IC50
Method in brief: as §2

[7] = molecular target: KRAS-G12D (Homo sapiens, UniProt P01116, G12D); test: SOS-catalyzed nucleotide exchange assay (Procedure A, TR-FRET), KRAS-G12D; type: biochemical; settings: nucleotide exchange, read-out: KRAS G12D GNE IC50
Method in brief: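 Signal ratio (520/495 nm, excitation 340 nm) reports Bodipy-GDP retention on biotinylated RAS after SOS-catalyzed exchange with 3 mM GTP. SOS was 40 nM, except 160 nM for G12V. Room-temperature exchange lasted 60 min (90 min for G12V), following a 60 min compound preincubation.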

[8] = system: AsPC-1 cells; test: Cellular phospho-ERK assay, AsPC-1 cells (homozygous KRAS-G12D); type: cell-based; settings: read-out: AsPC1 pERK IC50
Method in brief: as §1

[9] = Homo sapiens, 2 hours compound incubation
[10] = Homo sapiens, SW-620, 2 hours compound incubation
[11] = Homo sapiens, ASPC1, 2 h, 2 hours compound incubation
[12] = Homo sapiens, amplified wild-type KRAS, 2 hours
[13] = Homo sapiens, SW-620, KRAS-G12V, 2 hours
[14] = Homo sapiens, ASPC1, 2 h, KRAS-G12D, 2 hours

IC50 [1, 9] [nM] | IC50 [5, 10] [nM] | IC50 [8, 11] [nM] | Molecule | IC50 [2] [nM] | IC50 [3] [nM] | IC50 [4] [nM] | IC50 [6] [nM] | IC50 [7] [nM] | IC50 [1, 12] [nM] | IC50 [5, 13] [nM] | IC50 [8, 14] [nM] | IC50 ([1]; 2 hours compound incubation) [nM] | IC50 ([5]; 2 hours compound incubation) [nM] | IC50 ([8]; 2 hours compound incubation) [nM]
53.2 | 73 | 41.7 | C[C@@]1(O)COCCN(c2nc(OC[C@@]34CCCN3C[C@H](F)C4)nc3sc4c(-c5c(C6CC6)c(Cl)cc6[nH]ncc56)nccc4c23)C1 [Ex-144, (6S)-4-(8-(6-chloro-5-cyclopropyl-1H-indazol-4-yl)-2-(((2R,7aS)-2-fluoro-tetrahydro-1H-pyr-rolizin-7a(5H)-yl)-methoxy)pyrido [4′,3′:4,5]thieno[2,3-d]pyrimidin-4-yl)-6-methyl-1,4-oxaze-pan-6-ol] | 14.3 | 10.7 | 46 | 14.6 | 6.2 |  |  |  |  |  | 
53.1 | 131 | 38 | Cc1cc2[nH]ncc2c(-c2nccc3c2sc2nc(OC[C@@]45CCCN4C[C@H](F)C5)nc(N4CCOC[C@@](C)(O)C4)c23)c1C1CC1 [Ex-141, (6S)-4-(8-(5-cyclo-propyl-6-methyl-1H-indazol-4-yl)-2-(((2R,7aS)-2-fluoro-tetrahydro-1H-pyr-rolizin-7a(5H)-yl)-methoxy)pyrido [4′,3′:4,5]thieno[2,3-d]pyrimidin-4-yl)-6-methyl-1,4-oxaze-pan-6-ol] | 16.5 | 14.4 | 87.7 | 18.1 | 7.5 |  |  |  |  |  | 

Second part, the molecule before the results:

Molecule | IC50 [1, 9] [nM] | IC50 [5, 10] [nM] | IC50 [8, 11] [nM] | IC50 [2] [nM] | IC50 [3] [nM] | IC50 [4] [nM] | IC50 [6] [nM] | IC50 [7] [nM] | IC50 [1, 12] [nM] | IC50 [5, 13] [nM] | IC50 [8, 14] [nM] | IC50 ([1]; 2 hours compound incubation) [nM] | IC50 ([5]; 2 hours compound incubation) [nM] | IC50 ([8]; 2 hours compound incubation) [nM]
CN1CCC[C@H]1COc1nc(N2CCOC[C@@](C)(O)C2)c2c(n1)sc1c(-c3c(C4CC4)c(C(F)(F)F)cc4[nH]ncc34)nccc12 [Ex-79, (6S)-4-(8-(5-cyclopropyl-6-(trifluoromethyl)-1H-indazol-4-yl)-2-(((S)-1-methylpyrrolidin-2-yl)methoxy)pyrido[4′,3′:4.5]thi-eno[2,3-d]pyrimidin-4-yl)-6-methyl-1,4-oxazepan-6-ol] |  |  |  | 10.8 | 27.9 | 57.9 | 8.2 | 5.84 | 16.2 | 8.94 | 23.2 |  |  | 
[2H]C1([2H])CC[C@]2(COc3nc(N4CCOC[C@@](C)(O)C4)c4c(n3)sc3c(-c5c(C6CC6)c(Cl)cc6[nH]ncc56)nccc34)N1C[C@H](F)C2([2H])[2H] [Ex-210, (6S)-4-(8-(6-chloro-5-cyclopropyl-1H-indazol-4-yl)-2-(((2R,7aS)-2-fluoro-tetrahydro-1H-pyrrolizin-7a(5H)-yl-1,1,5,5-d4)meth-oxy)pyrido[4′,3′: 4,5]thieno[2,3-d]pyrimidin-4-yl)-6-methyl-1,4-oxaze-pan-6-ol] | 20.1 | 12.3 | 35 | 14.1 | 12.7 | 13.4 | 12.2 | 4.71 |  |  |  |  |  | 
(6S)-4-(8-(6-chloro- 5-cyclopropyl-1H- indazol-4-yl)-2- (((6'R,7a′R)-6′- fluorodihydro- 1′H,3′H-spiro[cyclo- propane-1,2′-pyr- rolizin]-7a′(5′H)- yl)methoxy)pyrido [4′,3′:4,5]thieno[2,3- d]pyrimidin-4-yl)-6- methyl-1,4-oxaze- pan-6-ol [Ex-218] |  |  |  | 8.69 | 7.46 | 77.4 | 6.76 | 3.42 |  |  |  | 37.4 | 20.2 | 31.9
C[C@@]1(O)COCCN(c2nc(OC[C@@]34CCCN3C[C@H](F)C4)nc3sc4c(-c5c(C6CCC6)c(Cl)cc6[nH]ncc56)nccc4c23)C1 [Ex-69, (6S)-4-(8-(6-chloro-5-cyclobutyl-1H-indazol-4-yl)-2-(((2R,7aS)-2-fluorotetrahydro-1H-pyrrolizin-7a(5H)-yl)methoxy)pyrido[4′,3′:4,5]thi-eno[2,3-d]pyrimidin-4-yl)-6-methyl-1,4-oxazepan-6-ol] |  |  |  | 10.2 | 12.5 | 20.4 | 28.6 | 6.79 | 52.7 | 51.9 | 68.5 |  |  | 
